Molecules are shown by their SMILES. Read-outs that look alike come from different tables or passages of the source.

The target of test [1] is T1, high affinity zinc uptake system (Zrt1p) (Saccharomyces cerevisiae, UniProt P32804).
T1 construct: endogenous in cells; host or cells: S. cerevisiae DY1457 (wild type, zinc-limited) and ZHY2 (zrt2); one kinetic value comes from ZHY1 carrying pOE1 (ZRT1 ORF under the GAL1 promoter)
The test can be described thus: 65Zn uptake assay in yeast, high affinity zinc uptake system. Type of test: cell-based. To be noted: for effect on zinc uptake by the high affinity system: 20 μM added metal, zinc-limited wild type. As for the experimental part:
(§1) Zinc uptake assays were performed as described previously for iron uptake (Eide et al. J. Biol. Chem. 267:20774-20781) except that ^65ZnCl2 (Amersham Corp., Arlington Heights, Ill.) and LZM-EDTA were substituted for ^59FeCl3 and LIM-EDTA. Cells were incubated at 30° C. with ^65Zn for five minutes, filtered, and washed with 10 ml ice-cold SSW. Cell-associated radioactivity was measured by liquid scintillation. Kinetic values were derived using KinetAsyst software (IntelliKinetics, Princeton, N.J.). Zinc accumulation was measured in cells grown in LZM medium supplemented with […] ^65Zn plus nonradioactive zinc to the indicated final concentration. Aliquots (0.5 ml) were filtered, washed with 10 ml ice-cold SSW, and counted by liquid scintillation. b-galactosidase activity was assayed as described by Guarente (Guarante, L. (1983) Methods Enzymol101:181-191).
(§2) Zinc uptake assays were performed as described previously for iron uptake (Eide et al. (1992) J. Biol. Chem. 267:20774-20781) except that ^65ZnCl2 (Amersham) and LZM-EDTA were substituted for ^59FeCI3 and LIM-EDTA, respectively. Cells were incubated for 5 minutes in LZM-EDTA plus the indicated concentration of ^65Zn, collected on glass fiber filters (Schleicher and Schuell), washed with 10 ml ice-cold SSW (1 mM EDTA, 20 mM trisodium citrate, 1 mM KH2PO4, 1 mM CaCl2, 5 mM MgSO4, 1 mM NaCl pH 4.2), and cell-associated radioactivity was measured by liquid scintillation counting. Cells were starved for glucose by incubating them in LZM-EDTA prepared without glucose for one hour at 30° C. prior to assay. Michaelis-Menten kinetic values were determined using […] software (Intellikinetics, Princeton, N.J.). Stock solutions of the chloride salts of Co, Cu, Mg, Mn, and Ni were prepared in distilled water at a concentration of 100 mM. The nonradioactive ZnCl2 stock was prepared at 100 mM in 0.02 N HCl and the FeCl3 stock was prepared at 50 mM in 0.1 N HCl. The statistical significance of the differences of values relative to controls was determined with one-way analysis of variance (ANOVA) followed by a Dunnett multiple comparison test. β-galactosidase activity was assayed in cells harvested at an OD600 of 0.5-2.0 as described by Guarente (Guarente, L. (1983) Methods Enzymol. 101:181-191) and activity is expressed as the change in absorbance at 420 nm×1000 divided by (min×ml of culture used×OD600 of the culture). Cell-associated zinc was measured in parallel cultures supplemented with tracer amounts of ^65Zn (10 μM) and nonradioactive zinc to the indicated final concentration. Aliquots (0.5 ml) were filtered, washed with 10 ml ice-cold SSW, and radioactivity measured by liquid scintillation.
(§3) To determine if ZRT1 plays a role in zinc uptake, the biochemical properties of this process in wild type cells were first characterized. […] Wild type (FIG. 10, DY1457, squares) and zrt1 mutant (FIG. 10, ZHY1, circles) cells were grown to exponential phase in zinc-limited (open symbols, FIG. 10) and zinc-replete (FIG. 10, closed symbols) media and assayed for zinc uptake rate over a range ZnSO4 concentrations. Zinc-limited media was LZM+10 μM zinc for the wild type and LZM+500 μM zinc for the mutant. Zinc-replete conditions were LZM+1000 μM for both strains. ZHY1(pOE1) cells (FIG. 10, triangles) were grown in zinc-replete SDgal medium.
(§4) Mutant zrt1 (ZHY1) cells were grown in LZM supplemented with 1 mM ZnCl2. Cells were incubated with 10 μM ^65Zn for the indicated times at either […]

The target of test [2] is T2, low affinity zinc uptake system (Zrt2p) (Saccharomyces cerevisiae, UniProt Q12436).
T2 construct: endogenous in cells; host or cells: S. cerevisiae ZHY1 (zrt1::LEU2) and zinc-replete DY1457; some values come from ZHY1 carrying pMC4 (multicopy genomic ZRT2) or pOE2 (ZRT2 ORF under GAL1)
Type of test: cell-based. To be noted: for effect on zinc uptake by the low affinity system / uptake rate of radioactive zinc, % of the control rate: 200 μM added metal, zrt1 mutant cells; for inhibition of pMC4- and pOE2-dependent zinc uptake activity: ZRT2 overexpressing zrt1 cells; for zinc accumulation: 30° C., 10 μM 65Zn. As for the experimental part: as §1, §2, §3, §4

Setting [3] is: zrt1 cells grown in SD glucose supplemented with 2 mM ZnCl2.

T1 sequence (P32804 whole entry): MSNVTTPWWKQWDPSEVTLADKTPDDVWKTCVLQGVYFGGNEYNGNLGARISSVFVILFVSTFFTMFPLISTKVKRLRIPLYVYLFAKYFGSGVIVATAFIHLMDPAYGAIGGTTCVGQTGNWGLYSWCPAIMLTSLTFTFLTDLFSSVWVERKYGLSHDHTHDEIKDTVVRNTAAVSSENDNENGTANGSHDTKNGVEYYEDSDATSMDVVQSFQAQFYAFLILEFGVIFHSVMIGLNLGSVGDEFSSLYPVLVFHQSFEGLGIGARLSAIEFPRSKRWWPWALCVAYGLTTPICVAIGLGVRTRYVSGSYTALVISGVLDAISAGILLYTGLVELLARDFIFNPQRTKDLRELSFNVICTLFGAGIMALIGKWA
T2 sequence (Q12436 whole entry): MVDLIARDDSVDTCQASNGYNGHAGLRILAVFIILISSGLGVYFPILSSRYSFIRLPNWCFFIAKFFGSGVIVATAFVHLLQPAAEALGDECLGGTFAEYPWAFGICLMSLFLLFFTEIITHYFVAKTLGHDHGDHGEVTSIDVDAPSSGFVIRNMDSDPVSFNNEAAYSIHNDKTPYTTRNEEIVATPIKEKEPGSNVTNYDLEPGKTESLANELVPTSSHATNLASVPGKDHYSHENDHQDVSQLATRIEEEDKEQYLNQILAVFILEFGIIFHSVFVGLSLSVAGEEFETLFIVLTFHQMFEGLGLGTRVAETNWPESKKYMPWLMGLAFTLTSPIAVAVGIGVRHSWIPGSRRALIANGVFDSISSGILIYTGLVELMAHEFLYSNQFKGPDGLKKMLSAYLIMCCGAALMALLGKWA

Turning to `[Cl-].[Cl-].[Co+2]` [Co], in test [1] (2 μM 65Zn, five minutes), the “effect on zinc uptake by the high affinity system” value is on record as “unaffected”. Besides, the “effect on zinc uptake by the low affinity system” value in test [2] (20 μM 65Zn, five minutes) is “did not diminish zinc uptake”.
With `[Cl][Cu][Cl]` [Cu], the “effect on zinc uptake by the high affinity system” value in test [1] (2 μM 65Zn, five minutes) was “inhibitory”. Moreover, the “uptake rate of radioactive zinc, % of the control rate” value (shortened to “uptake rate … % of the control rate”) in test [2] (20 μM 65Zn, five minutes) came out at 32%. In test [2], the “inhibition of pMC4- and pOE2-dependent zinc uptake activity” value is on record as “inhibited”.
With `[Fe+2]` [Fe(II)], in test [1] (2 μM 65Zn, five minutes), the “effect on zinc uptake by the high affinity system” value is listed as “inhibitory”. Besides, the “uptake rate … % of the control rate” value in test [2] (20 μM 65Zn, five minutes) is listed as 79%. In addition, in test [2], the “inhibition of pMC4- and pOE2-dependent zinc uptake activity” value is “inhibited”.
Consider `[Cl][Fe]([Cl])[Cl]` [Fe(III)], for which the “effect on zinc uptake by the high affinity system” value in test [1] (2 μM 65Zn, five minutes) is reported as “unaffected”. Moreover, in test [2] (20 μM 65Zn, five minutes), the “effect on zinc uptake by the low affinity system” value is “did not diminish zinc uptake”.
The matching figures for `[Cl][Mn][Cl]` [Mn]: “unaffected” and “did not diminish zinc uptake”.
As to `[Cl][Ni][Cl]` [Ni], the “effect on zinc uptake by the high affinity system” value in test [1] (2 μM 65Zn, five minutes) is “unaffected”. Moreover, the “effect on zinc uptake by the low affinity system” value in test [2] (20 μM 65Zn, five minutes) is recorded as “did not diminish zinc uptake”.
Regarding `[Zn+2]` [zinc], the “control rate of zinc uptake” value stood at 47 pmol/min/10^6 cells in test [1] (2 μM 65Zn, five minutes, wild type grown in LZM + 10 μM ZnCl2, no other metal) and 0.9 pmol/min/10^6 cells in test [2] (20 μM 65Zn, five minutes, zrt1 (ZHY1) grown in LZM + 1 mM ZnCl2, no other metal). In test [1] (2 μM 65Zn, five minutes), the “effect on zinc uptake by the high affinity system” value was “inhibitory”. The “Vmax of zinc uptake” value is listed as 30 pmol/min/10^6 cells in test [1] (ZHY1(pOE1), ZRT1 expressed from GAL1 promoter, zinc-replete cells, galactose); 80 pmol/min/10^6 cells in test [1] (wild type DY1457, zinc-limited cells (LZM+10 μM zinc)); 2 pmol/min/10^6 cells in test [2] (zinc-replete cells); 1-2 pmol/min/10^6 cells in test [2] (zrt1 mutant cells grown in zinc-limiting and zinc-replete media). The Km in test [1] (ZHY1(pOE1), ZRT1 expressed from GAL1 promoter, zinc-replete cells, galactose, read-out: apparent Km of zinc uptake) is 0.6 ± 0.1 µM; in test [1] (calculated free zinc, read-out: apparent Km of the high affinity system, calculated free zinc concentration), about 0.01 µM; in test [1] (total zinc, read-out: apparent Km of the high affinity system, total zinc), 1 µM; in test [1] (wild type DY1457, zinc-limited cells (LZM+10 μM zinc), read-out: apparent Km of zinc uptake), 1 ± 0.1 µM; in test [1] (wild type, low growth medium [Zn] (LZM + 10 μM ZnCl2), total zinc, mean ± SE, read-out: Km), 0.52 ± 0.07 µM; in test [1] (zrt2, high growth medium [Zn] (LZM + 1.5 mM ZnCl2), total zinc, mean ± SE, read-out: Km), 0.4 ± 0.04 µM. Moreover, the Km was 0.85 ± 0.18 µM in test [1] (zrt2, low growth medium [Zn], total zinc, mean ± SE, read-out: Km); 8 ± 0.4 µM in test [2] (ZHY1 (zrt1) with plasmid pMC4, SD glucose, total zinc, mean ± SE, read-out: Km); 3.6 ± 0.1 µM in test [2] (ZHY1 (zrt1) with plasmid pOE2 (GAL1-ZRT2), SD galactose, total zinc, mean ± SE, read-out: Km); 9.5 ± 0.8 µM in test [2] (ZHY1 (zrt1) with vector (YEp24, control for pMC4), SD glucose, total zinc, mean ± SE, read-out: Km); 10 ± 1 µM in test [2] (ZHY1 (zrt1) with vector (pRS316-GAL1, control for pOE2), SD galactose, total zinc, mean ± SE, read-out: Km); about 0.1 µM in test [2] (calculated free zinc, read-out: apparent Km of the low affinity system, free zinc). For the same molecule, the Km came to 10 µM in test [2] (total zinc, read-out: apparent Km of the low affinity system); 15 ± 3 µM in test [2] (wild type, high growth medium [Zn] (LZM + 1.5 mM ZnCl2), total zinc, mean ± SE, read-out: Km); 10 ± 1 µM in test [2] (wild type, zinc-replete cells (LZM+1000 μM), read-out: apparent Km of zinc uptake); 10 ± 1 µM in test [2] (zrt1, high growth medium [Zn], total zinc, mean ± SE, read-out: Km); 10 ± 1 µM in test [2] (zrt1 mutant cells grown in zinc-limiting and zinc-replete media, read-out: apparent Km of zinc uptake). Also, the Vmax in test [1] (wild type, low growth medium [Zn] (LZM + 10 μM ZnCl2), mean ± SE) was 76 ± 2 pmol/min/10^6; in test [1] (zrt2, high growth medium [Zn] (LZM + 1.5 mM ZnCl2), mean ± SE), 0.31 ± 0.01 pmol/min/10^6; in test [1] (zrt2, low growth medium [Zn], mean ± SE), 60 ± 2 pmol/min/10^6; in test [2] (ZHY1 (zrt1) with plasmid pMC4, SD glucose, mean ± SE), 28 ± 1 pmol/min/10^6; in test [2] (ZHY1 (zrt1) with plasmid pOE2 (GAL1-ZRT2), SD galactose, mean ± SE) it was 17 ± 2 pmol/min/10^6; in test [2] (ZHY1 (zrt1) with vector (YEp24, control for pMC4), SD glucose, mean ± SE), 2.2 ± 0.1 pmol/min/10^6. Moreover, the Vmax in test [2] (ZHY1 (zrt1) with vector (pRS316-GAL1, control for pOE2), SD galactose, mean ± SE) is given as 2.0 ± 0.1 pmol/min/10^6; in test [2] (wild type, high growth medium [Zn] (LZM + 1.5 mM ZnCl2), mean ± SE) it was 0.60 ± 0.03 pmol/min/10^6; in test [2] (zrt1, high growth medium [Zn], mean ± SE), 0.52 ± 0.04 pmol/min/10^6. The “uptake rate … % of the control rate” value in test [2] (20 μM 65Zn, five minutes) is given as “approximately 10%”. Also, the “rate of zinc uptake of pMC4 transformants relative to vector control” value in test [2] (ZHY1 (zrt1) with pMC4 vs YEp24, SD glucose, all 65Zn concentrations tested) was “approximately 15 fold”. The zinc accumulation entry in test [2] (glucose-starved zrt1 cells, five minutes) is given as “no detectable zinc accumulation”; in test [2] (zrt1 cells incubated with glucose, five minutes) it was 3.7 pmol/10^6 cells. Further, the zinc uptake rate in test [2] (setting [3]) was 0.12 pmol/min/106 cells; in test [2] (zrt1 cells grown in zinc-replete SD glucose, assayed at 10, M 65Zn) it was 1.7 pmol/min/10^6 cells. In addition, the “zinc uptake rate relative to untreated cells” value in test [2] (setting [3]) came out at 7%.
